Biological target: T1, DtenPHY1 (Dolichomastix tenuilepis, UniProt A0A097CKJ3)
T1 construct: gene PHY; Twin-Strep-tag kept; expressed in Chlamydomonas CC400 cytosol, also in E. coli LMG194/pPL-PCB as control
Test: zinc-dependent fluorescence of SDS-PAGE blot
Type: binding
Conditions: covalent; in vitro assembly with added PCB, TES pH 8.0, room temperature, ~2 h, dark; also without added PCB

T1 sequence (A0A097CKJ3 entry or part of it): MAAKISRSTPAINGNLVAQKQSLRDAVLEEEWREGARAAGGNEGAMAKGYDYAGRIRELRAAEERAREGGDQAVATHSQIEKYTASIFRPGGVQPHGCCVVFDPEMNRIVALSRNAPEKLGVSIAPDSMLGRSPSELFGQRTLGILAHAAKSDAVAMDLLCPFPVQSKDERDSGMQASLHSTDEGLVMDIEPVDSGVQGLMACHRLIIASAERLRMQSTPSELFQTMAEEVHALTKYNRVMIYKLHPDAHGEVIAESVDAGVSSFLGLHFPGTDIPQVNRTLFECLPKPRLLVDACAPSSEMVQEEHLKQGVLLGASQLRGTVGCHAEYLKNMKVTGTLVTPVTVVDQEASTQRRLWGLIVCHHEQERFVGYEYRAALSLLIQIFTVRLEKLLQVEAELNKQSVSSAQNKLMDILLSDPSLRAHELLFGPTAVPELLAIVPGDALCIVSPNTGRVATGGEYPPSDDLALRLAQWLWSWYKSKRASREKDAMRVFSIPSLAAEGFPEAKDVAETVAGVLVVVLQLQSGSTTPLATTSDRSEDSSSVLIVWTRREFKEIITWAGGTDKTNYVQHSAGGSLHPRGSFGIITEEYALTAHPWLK

With `CC=C1C(=Cc2[nH]c(C=C3N=C(C=C4NC(=O)C(CC)=C4C)C(C)=C3CCC(=O)O)c(CCC(=O)O)c2C)NC(=O)C1C` (stereo not shown) [PCB, phycocyanobilin] the “zinc-dependent fluorescence of SDS-PAGE blot” value was “DtenPHY1 purified from Chlamydomonas CC400 covalently binds phycocyanobilin (PCB)”.

Reference: paper PMC5974162, “Characterization of Ferredoxin-Dependent Biliverdin Reductase PCYA1 Reveals the Dual Function in Retrograde Bilin Biosynthesis and Interaction With Light-Dependent Protochlorophyllide Oxidoreductase LPOR in Chlamydomonas reinhardtii” (Frontiers in Plant Science, 2018)
